{"source": "PubChem BioAssay AID2305", "about": "(GlaxoSmithKline (GSK), 2010)", "note": "Where “and” joins values, the source holds several entries; their conditions need not be identical. Equal entries are not always repeated."}
{"system": "P. falciparum 3D7 growth, pLDH absorbance", "assay": "blood-stage malaria parasite growth potency – strain 3D7, dose response (AID 2305)"}
{"compound": "COc1cccc(NC(=O)NC2CCN(c3ccnc(Nc4cc(OC)c(OC)c(OC)c4)n3)C2)c1", "note": "(stereo not given)", "IC50": "860 nM"}
{"compound": "Cc1cc(OCCCNc2nc(NCCc3ccc(O)cc3)nc(N3CCNCC3)n2)c(Cl)c(C)c1Cl", "IC50": "960 nM"}
{"compound": "CCc1nc2c(cnn2CC)c(NC2CCOCC2)c1CNC(=O)c1ccoc1C", "IC50": "890 nM"}
{"compound": "Cc1cc(C2CCN(CCCCNC(=O)c3ccc(-c4ccc(C(F)(F)F)cc4)cc3)CC2)c(C)cc1OCCO", "IC50": "880 nM"}
{"compound": "O=[N+]([O-])c1ccc2ncnc(Nc3ccc(F)c(Cl)c3)c2c1", "IC50": "710 nM"}
{"compound": "O=C(Nc1cncc(NC(=O)c2ccc(Cl)c(Cl)c2)c1)c1ccc(Cl)c(Cl)c1", "IC50": "730 nM"}
{"compound": "COc1cc(C(=O)Nc2cccc(-c3nc4ccccc4[nH]3)c2)ccc1OC(C)=O", "IC50": "760 nM"}
{"compound": "CN1CCC[C@H]1COc1ccc(CN2CC[C@H](NC(=O)c3ccc(Cl)c(Cl)c3)C2)cc1Br", "IC50": "980 nM"}
{"compound": "COc1cc(/C=C/C(=O)NC2CCC(CN3CCC(c4c[nH]c5ccccc45)CC3)CC2)ccc1O", "note": "(stereo not given)", "IC50": "810 nM and 790 nM"}
{"compound": "CCOC(=O)c1cccc(N/C(N)=N/c2nc(C)cc(NCCc3ccccc3)n2)c1", "IC50": "680 nM"}
{"compound": "O=C(Nc1cccc(CN2CCCN(Cc3ccccc3)CC2)c1)c1ccc(-c2ccccc2)cc1", "IC50": "1300 nM"}
{"compound": "CC(C)CC(NC(=O)c1ccc(F)cc1)C(=O)N[C@H](/C=N/N1CCNC1=O)CC(C)C", "note": "(stereo not given in full)", "IC50": "1030 nM"}
{"compound": "O=C(CCc1ccc(Cl)cc1Cl)NC1CCC(CN2CCC(c3c[nH]c4ccccc34)CC2)CC1", "note": "(stereo not given)", "IC50": "900 nM and 220 nM"}
{"compound": "CC(C)(C)c1ccc(CNCC(C)(C)c2nc(-c3ccc(Cl)c(O)c3)c(-c3ccnc(N)n3)[nH]2)cc1", "IC50": "700 nM"}
{"compound": "Nc1nc2c(ncn2COC2COP(=O)(O)OC2)c(=O)[nH]1", "note": "(stereo not given)", "IC50": "450 nM"}
{"compound": "O=C(/C=C/c1ccc(Cl)c(Cl)c1)NCCCCCN1CCC(NC(=O)Nc2cc(F)ccc2F)CC1", "IC50": "700 nM"}
{"compound": "CCCCCCn1c(Sc2ccc(C#N)c([N+](=O)[O-])c2)nnc1-c1ccccc1", "IC50": "770 nM"}
{"compound": "COc1cc2nccc(Nc3cc(C)cc(O)c3)c2cc1OC", "IC50": "910 nM"}
{"compound": "Cc1cc(N)c2cc(NC(=O)CCC(=O)Nc3ccc4nc(C)cc(N)c4c3)ccc2n1", "IC50": "950 nM"}
{"compound": "c1cc2nc(CCCCCc3nc4ccc(C5=N[C@@H]6CCCC[C@@H]6N5)cc4[nH]3)[nH]c2cc1C1=N[C@@H]2CCCC[C@@H]2N1", "IC50": "200 nM"}
{"compound": "Cc1ccc(NC(=O)c2ccc(CN3CCCN(Cc4cccc(C#N)c4)CC3)cc2)cc1F", "IC50": "590 nM"}
{"compound": "CS(=O)(=O)c1ccc2nc(-c3cc(-c4cccc(F)c4)cnc3N)[nH]c2c1", "IC50": "1090 nM"}
{"compound": "Cc1cc(NCCc2ccccc2)nc(/N=C(\\N)Nc2cccc([N+](=O)[O-])c2)n1", "IC50": "140 nM"}
{"compound": "C=C[C@H]1CN2CC[C@H]1C[C@H]2[C@H](O)c1ccnc2ccccc12", "IC50": "170 nM"}
{"compound": "O=C(/C=C/C=C/c1ccccc1)NC1CCC(CN2CCC(c3c[nH]c4ccccc34)CC2)CC1", "note": "(stereo not given)", "IC50": "870 nM"}
{"compound": "COc1ccc(NC(=O)c2ccc(C=Cc3ccc(C(F)(F)F)cc3)cc2)cc1N1CCN(C)CC1", "IC50": "420 nM"}
{"compound": "Oc1c(CN2CCCC(C(F)(F)F)C2)cc(Cl)c2ccccc12", "note": "(stereo not given)", "IC50": "1570 nM"}
{"compound": "CC(C)CCNC(=O)C1Cc2c([nH]c3cc(Cl)ccc23)C2(CCN(CCc3ccccc3)CC2)N1", "note": "(stereo not given)", "IC50": "690 nM"}
{"compound": "COc1ccccc1C1CN(CCNC(=O)c2ncc(C)[nH]2)Cc2ccccc2O1", "note": "(stereo not given)", "IC50": "800 nM"}
{"compound": "COc1ccc(CNC2Cc3ccccc3C2)cc1-c1cccc(S(=O)(=O)NCCN2CCCC2)c1", "IC50": "760 nM"}
{"compound": "CN1CCN(CCCN(Cc2ccc(-c3cccc(CNC4CCCC4)c3)cc2)C(=O)/C=C/c2ccccc2)CC1", "IC50": "1330 nM"}
{"compound": "COc1cc(NC(=O)Nc2ccnc3ccccc23)cc(OC)c1", "IC50": "470 nM"}
{"compound": "CCCCNCc1ccc(-c2nc(CN(CCCN3CCN(C)CC3)C(=O)Nc3cccc(Cl)c3)cs2)cc1", "IC50": "970 nM"}
{"compound": "Cc1cc(N[C@@H](CC(C)C)C(=O)Nc2ccccc2)nc(NCCc2ccccc2)n1", "IC50": "890 nM"}
{"compound": "CC(=O)c1sc2ccccc2c1O", "IC50": "880 nM"}
{"compound": "Clc1ccc2c(NN=Cc3ccco3)ccnc2c1", "IC50": "1100 nM"}
{"compound": "NC1CCN(CCNCc2cccc(-c3ccc(-c4nc5ccc(F)cc5[nH]4)cc3)c2)C1", "note": "(stereo not given)", "IC50": "730 nM"}
{"compound": "COc1ccc2nc(C)cc(NN=Cc3ccccc3F)c2c1", "IC50": "370 nM"}
{"compound": "Nc1nccc(-c2ccc3c(-c4cccc(F)c4)cnc(N)c3c2)n1", "IC50": "1020 nM"}
{"compound": "COc1ccc(C(C(=O)NC2CCN(C[C@H](O)c3ccnc4ccc(OC)cc34)CC2)N2CCN(c3ccc(F)cc3)CC2)cc1", "note": "(stereo not given in full)", "IC50": "210 nM"}
{"compound": "COc1cc2c(cc1OCCN1CCC(N3CCCCC3)CC1)N(C(=O)/C=C/c1ccccc1OC(F)(F)F)CC2", "IC50": "590 nM"}
{"compound": "Nc1ccc2[nH]cc(C3CCN(CCC4CCN(C(=O)/C=C/c5ccc(Cl)c(Cl)c5)CC4)CC3)c2n1", "IC50": "740 nM"}
{"compound": "c1ccc2cc(CNCCCN3CCN(CCCNCc4ccc5ccccc5c4)CC3)ccc2c1", "IC50": "550 nM"}
{"compound": "O=C(c1cncc(-c2ccccc2)c1)N(Cc1cncn1Cc1ccccc1F)CC1CC1", "IC50": "800 nM"}
{"compound": "c1ccc(-c2ccc(CNCCCNc3nc4ccccc4[nH]3)cc2)cc1", "IC50": "780 nM"}
{"compound": "NC1=NC(c2ccccc2)(c2ccccc2)C(=O)N1CC=Cc1ccccc1", "IC50": "600 nM"}
{"compound": "CCN(CC)C(=O)c1cnc(-c2ccccc2)nc1Oc1cccc(Cl)c1", "IC50": "1160 nM"}
{"compound": "O=C(c1ccco1)c1cn(CCOc2ccccc2)c2ccccc12", "IC50": "750 nM"}
{"compound": "CC(C)(C)OC(=O)N1CCC(C2CCN(C(=O)OC(C)(C)C)CC2)CC1", "IC50": "1160 nM"}
{"compound": "COc1cc2nc(N3CCC(CNC(=O)c4ccc(-c5ccc(C(=O)N(C)C)cc5)cc4)CC3)nc(N)c2cc1OC", "IC50": "750 nM"}
{"compound": "Cc1cc(NCCC(=O)NCCOc2ccccc2)nc(NCCc2ccc(F)cc2)n1", "IC50": "940 nM"}
{"compound": "Cc1ccc2c(OCCN3CCC(Cc4cc5c(cc4F)OCC(=O)N5)CC3)cc(F)cc2n1", "IC50": "630 nM"}
{"compound": "CC[C@H]1CN2CCc3c([nH]c4ccccc34)[C@@H]2C[C@@H]1CC1c2cc(OC)c(OC)cc2CCN1C", "note": "(stereo not given in full)", "IC50": "1090 nM"}
{"compound": "Cc1cccc(NC(=O)c2cnc(N3CCN(c4ccncc4)CC3)c(Cl)c2)c1", "IC50": "680 nM"}
{"compound": "O=C(NCc1ccc(Cl)c(Cl)c1)c1cc(CNC2CCNCC2)ccc1O", "IC50": "860 nM"}
{"compound": "COc1ccc(CC2(c3ccc(F)cc3)N=C(N)N(CCCc3ccc(F)c(F)c3)C2=O)cc1", "note": "(stereo not given)", "IC50": "780 nM"}
{"compound": "O=S(=O)(NC1CCCCN(Cc2ccccc2O)C1)c1ccc(C(F)(F)F)cc1", "note": "(stereo not given)", "IC50": "1300 nM"}
{"compound": "Cc1ccc(C(=O)Nc2ccc(F)c(F)c2F)cc1S(=O)(=O)N1CCCCC1", "IC50": "760 nM"}
{"compound": "N#Cc1ccc(C(=O)Nc2cccc(-c3ccc(CN4CCCC4)cc3)c2)cc1", "IC50": "720 nM"}
{"compound": "CN(C(=O)Nc1ccc(F)cc1)C1CCN(CCCCCNC(=O)/C=C/c2ccc(Cl)c(Cl)c2)CC1", "IC50": "890 nM"}
{"compound": "CNC(=O)C1Cc2c([nH]c3ccc(Cl)cc23)C2(CCN(CCc3ccccc3)CC2)N1", "note": "(stereo not given)", "IC50": "890 nM"}
{"compound": "CC(C)CNC(=O)CN1C(=O)C(c2ccccc2)(c2ccccc2)N=C1N", "IC50": "820 nM"}
{"compound": "O=C(Cc1cnc[nH]1)Nc1ccc(-c2cccc(-c3nc4ccc(C(F)(F)F)cc4[nH]3)c2)cc1", "IC50": "740 nM"}
{"compound": "O=S(=O)(NCCN1CCCC1)c1ccc(-c2ccc(CNCc3ccc(F)cc3)cc2)cc1", "IC50": "790 nM"}
{"compound": "O=C(Nc1ccc(-c2cccc(-c3nc4ccc(C(F)(F)F)cc4[nH]3)c2)cc1)Nc1ccc(F)c(F)c1F", "IC50": "710 nM"}
{"compound": "CCCCOC(=O)c1ccc(NC(=O)Nc2ccc(Cn3ncc(N4CCCNCC4)c(Cl)c3=O)cc2)cc1", "IC50": "740 nM"}
{"compound": "Cc1[nH]nc2cc(Nc3ccnc(Nc4ccc(CN5CCOCC5)cc4)n3)ccc12", "IC50": "950 nM"}
{"compound": "Cc1ccc2nc(C)cc(NN=Cc3ccccc3Cl)c2c1", "IC50": "750 nM"}
{"compound": "Cc1cc(N[C@@H](CC(C)C)C(=O)NCCc2ccccc2)nc(NCCc2cccs2)n1", "IC50": "1200 nM"}
{"compound": "CCOc1cc(C2C(C(=O)OC(C)C)=C(C)NC3=C2C(=O)CC(c2ccc(Cl)cc2)C3)ccc1OC(C)=O", "note": "(stereo not given)", "IC50": "930 nM"}
